# Reference: patent US20120178786A9, “Use of tetramic acid derivatives for controlling pests by drenching, drip application, or dip application” (priority 2006, published 2012)
# Experiments:
# Assay type in all cases: in vivo
# [1] = test system: citrus mealybug Pseudococcus citri (PSECCI); experiment: Example 12: drench of Coleus plants, Abbott efficacy; details: 240 SC
# Procedure: Coleus plants (approximate height 29 cm) in 6-inch pots which have been infected approximately 4 weeks before the treatment with citrus mealybug Pseudococcus citri (PSECCI) are drenched, in three replications, with an active substance solution containing the active substance I-4 (cis isomer, formulation: 240 SC) and, by way of comparison, with the commercial standard imidacloprid (240 SC) at the application rate stated. The greenhouse temperature is 29° C. The test is evaluated 7, 14, 21 and 28 days after the treatment by determining the efficacy with the aid of Abbott's formula.
# Thrips palmi = experiment: Example 7: drench of cucumber plots, Abbott efficacy; details: 20 mg active substance/plant, two applications at 10-day interval, I-4 240 SC, imidacloprid 100 SL
# Procedure: Plots approximately 5 m^2 in size and containing cucumber plants are drenched, in three replications, against Thrips palmi with an active substance solution containing the active substance I-4 (cis isomer, formulation: 240 SC) and, by way of comparison, with the standard imidacloprid (100 SL) at the application rate stated, corresponding to an approximate water application rate of 300 l/ha. Two applications are effected at a 10-day interval. The test is evaluated in each case 9 days after the first treatment and 7 and 13 days after the second treatment by determining the efficacy with the aid of Abbott's formula.
# Bemisia sp. = experiment: Example 15: drench of bell pepper plots, kill rate of larvae on the leaves
# Procedure: Plots approximately 2×5 m in size which contain bell pepper plants are treated, in three replications, against Bemisia sp. The active substance example (I-4) cis isomer (240 SC) is drenched in an active substance solution at the application rate stated. The water application rate is 700 l/ha. Three treatments are carried out at intervals of 7 and 14 days. The test is evaluated in each case 7, 14, 21 and 28 days after the 3rd treatment by scoring the kill rate of the larvae on the leaves.
# Coccus viridis = experiment: Example 11: drench of gardenia plants, Henderson-Tilton efficacy against nymphs; details: 240 SC
# Procedure: Gardenia plants cv. […] The greenhouse temperature is 27° C. The test is evaluated 7, 15, 21 and 35 days after the treatment by determining the activity against nymphs on the leaves with the aid of the Henderson-Tilton method.
# Aphis craccivora = experiment: Example 3: drench of violet plants, Henderson-Tilton efficacy against nymphs; details: 12 mg active substance/1 potting compost, 240 SC
# Procedure: Violet plants cv. “Ladies delight” (approximate height 15 cm) in 4-inch pots which had been infected with Aphis craccivora two weeks before the treatment are drenched, in four replications, with an active substance solution containing the active substance I-4 (cis isomer, formulation: 240 SC) and, by way of comparison, with the commercial standard imidacloprid (240 SC) at the application rate stated. The greenhouse temperature is 27-33° C. The test is evaluated 7, 14, 22 and 35 days after the treatment by determining the activity against nymphs on the leaves with the aid of the Henderson-Tilton method.
# [2] = test system: Bemisia argentifolii (BEMIAR); experiment: Example 8: drench of tropical sage plants, Henderson-Tilton efficacy against nymphs; details: 12 mg active substance/1 potting compost, 240 SC
# Procedure: Tropical sage plants cv. “scarlet sage” (approximate height 29 cm) in 6-inch pots and infested with Bemisia argentifolii (BEMIAR) are drenched, in three replications, with an active substance solution containing the active substance I-4 (cis isomer, formulation: 240 SC) and, by way of comparison, with the commercial standard imidacloprid (240 SC) at the application rate stated. The greenhouse temperature is 27-33° C. The test is evaluated 9, 13, 20, 34 and 41 days after the treatment by determining the activity against nymphs on the leaves with the aid of the Henderson-Tilton method.
# [3] = test system: Frankliniella occidentalis (FRANOC); experiment: Example 6: drench of verbena plants, Henderson-Tilton efficacy against nymphs; details: 12 mg active substance/1 potting compost, 240 SC
# Procedure: Verbena plants (approximate height 13 cm) in 6-inch-pots which are infected with Frankliniella occidentalis (FRANOC) are drenched, in four replications, with an active substance solution containing the active substance I-4 (cis isomer, formulation: 240 SC) and, by way of comparison, with the commercial standard imidacloprid (240 SC) at the application rate stated. The greenhouse temperature is 27-33° C. The test is evaluated 7, 14, 21 and 28 days after the treatment by determining the activity against nymphs on the leaves with the aid of the Henderson-Tilton method.
# [4] = test system: Madeira mealybug (Phenacoccus madeirensis); experiment: Example 13: drench of Coleus plants, Abbott efficacy; details: 12 mg active substance/1 potting compost, 240 SC
# Procedure: Coleus plants (approximate height 29 cm) in 6-inch pots which have been infected approximately 4 weeks before the beginning of the experiment with Madeira mealybug (Phenacoccus madeirensis) are drenched, in three replications, with an active substance solution containing the active substance I-4 (cis isomer, formulation: 240 SC) and, by way of comparison, with the commercial standard imidacloprid (240 SC) at the application rate stated. The greenhouse temperature is 29° C. The test is evaluated 7, 14, 21 and 28 days after the treatment by determining the efficacy with the aid of Abbott's formula.
# [5] = test system: Trialeurodes vaporarium (TRIAVA); experiment: Example 10: drip application to tomato plants on rock wool, Abbott efficacy; details: three treatments
# Procedure: In each case 12 tomato plants cv. “Briljant” on rock wool are treated, in four replications, with a drip application against Trialeurodes vaporarium (TRIAVA) with an active substance solution containing the active substance I-4 (cis isomer, formulation: 100 OD) in comparison with the commercial standard imidacloprid (70 WG) at the application rate stated. The greenhouse temperature is 20° C. Three treatments are carried out at intervals of seven and fourteen days. The test is evaluated 14, 21, 28, 36 and 43 days after the 1st treatment by determining the efficacy with the aid of Abbott's formula.
# [6] = 7 d after treatment, 24 mg active substance/1 potting compost
# [7] = 21 d after treatment, 24 mg active substance/1 potting compost
# [8] = 7 d after treatment, 12 mg active substance/1 potting compost
# [9] = 21 d after treatment, 12 mg active substance/1 potting compost
Structure (SMILES),Abbott efficacy (%) against THRIPL (Thrips palmi; 7 d after 2nd treatm.) [%],Abbott efficacy (%) against THRIPL (Thrips palmi; 9 d after 1st treatm.) [%],Abbott efficacy (%) against THRIPL (Thrips palmi; 13 d after 2nd treatm.) [%],Henderson-Tilton efficacy (%) against Aphis craccivora (Aphis craccivora; 7 d after treatment) [%],Henderson-Tilton efficacy (%) against Aphis craccivora (Aphis craccivora; 14 d after treatment) [%],Henderson-Tilton efficacy (%) against Aphis craccivora (Aphis craccivora; 22 d after treatment) [%],Henderson-Tilton efficacy (%) against Aphis craccivora (Aphis craccivora; 35 d after treatment) [%],Henderson-Tilton efficacy (%) against Bemisia argentifolii ([2]; 9 d after treatment) [%],Henderson-Tilton efficacy (%) against Bemisia argentifolii ([2]; 13 d after treatment) [%],Henderson-Tilton efficacy (%) against Bemisia argentifolii ([2]; 20 d after treatment) [%],Henderson-Tilton efficacy (%) against Bemisia argentifolii ([2]; 34 d after treatment) [%],Henderson-Tilton efficacy (%) against Bemisia argentifolii ([2]; 41 d after treatment) [%],Henderson-Tilton efficacy (%) against FRANOC ([3]; 7 d after treatment) [%],Henderson-Tilton efficacy (%) against FRANOC ([3]; 14 d after treatment) [%],Henderson-Tilton efficacy (%) against FRANOC ([3]; 21 d after treatment) [%],Henderson-Tilton efficacy (%) against FRANOC ([3]; 28 d after treatment) [%],Abbott efficacy (%) against Phenacoccus madeirensis ([4]; 7 d after treatment) [%],Abbott efficacy (%) against Phenacoccus madeirensis ([4]; 14 d after treatment) [%],Abbott efficacy (%) against Phenacoccus madeirensis ([4]; 21 d after treatment) [%],Abbott efficacy (%) against Phenacoccus madeirensis ([4]; 28 d after treatment) [%],other results
CCOC(=O)OC1=C(c2cc(C)ccc2C)C(=O)N[C@]12CC[C@@H](OC)CC2 [Example I-4],64.1,66.3,80.0,100,84,100,100,99,100,98,100,100,100,100,90,100,84,89,99,98,"Abbott efficacy (%) against PSECCI [1, 6]: 63%; Abbott efficacy (%) against PSECCI ([1]; 14 d after treatment, 24 mg active substance/1 potting compost): 91%; Abbott efficacy (%) against PSECCI [1, 7]: 94%; Abbott efficacy (%) against PSECCI ([1]; 28 d after treatment, 24 mg active substance/1 potting compost): 93%; Efficacy (% Abbott) against Bemisia sp. (Bemisia sp.; 7 d after 3rd treatm., 40 + 5 + 5 mg/plant, 240 SC): 86.2 % Abbott; Efficacy (% Abbott) against Bemisia sp. (Bemisia sp.; 14 d after 3rd treatm., 40 + 5 + 5 mg/plant, 240 SC): 94.4 % Abbott; Efficacy (% Abbott) against Bemisia sp. (Bemisia sp.; 21 d after 3rd treatm., 40 + 5 + 5 mg/plant, 240 SC): 94.9 % Abbott; Efficacy (% Abbott) against Bemisia sp. (Bemisia sp.; 28 d after 3rd treatm., 40 + 5 + 5 mg/plant, 240 SC): 90.5 % Abbott; Henderson-Tilton efficacy (%) against Coccus viridis (Coccus viridis; [6]): 35%; Henderson-Tilton efficacy (%) against Coccus viridis (Coccus viridis; 15 d after treatment, 24 mg active substance/1 potting compost): 45%; Henderson-Tilton efficacy (%) against Coccus viridis (Coccus viridis; [7]): 69%; Henderson-Tilton efficacy (%) against Coccus viridis (Coccus viridis; 35 d after treatment, 24 mg active substance/1 potting compost): 100%; Abbott efficacy (%) against TRIAVA ([5]; 14 d after 1st treatment, 20 mg active substance/plant, 100 OD): 26.8%; Abbott efficacy (%) against TRIAVA ([5]; 21 d after 1st treatment, 20 mg active substance/plant, 100 OD): 66.3%; Abbott efficacy (%) against TRIAVA ([5]; 28 d after 1st treatment, 20 mg active substance/plant, 100 OD): 90.4%; Abbott efficacy (%) against TRIAVA ([5]; 36 d after 1st treatment, 20 mg active substance/plant, 100 OD): 95.6%; Abbott efficacy (%) against TRIAVA ([5]; 43 d after 1st treatment, 20 mg active substance/plant, 100 OD): 97.9%"
"O=[N+]([O-])NC1=NCCN1Cc1ccc(Cl)nc1 [Imidacloprid, imidacloprid, reference compound]",68.8,73.7,44.0,100,94,100,100,94,100,95,94,100,100,100,49,100,92,83,30,44,"Abbott efficacy (%) against PSECCI [1, 8]: 30%; Abbott efficacy (%) against PSECCI ([1]; 14 d after treatment, 12 mg active substance/1 potting compost): 35%; Abbott efficacy (%) against PSECCI [1, 9]: 19%; Abbott efficacy (%) against PSECCI ([1]; 28 d after treatment, 12 mg active substance/1 potting compost): 16%; Efficacy (% Abbott) against Bemisia sp. (Bemisia sp.; 7 d after 3rd treatm., 10.5 mg/plant): 96.6 % Abbott; Efficacy (% Abbott) against Bemisia sp. (Bemisia sp.; 14 d after 3rd treatm., 10.5 mg/plant): 80.6 % Abbott; Efficacy (% Abbott) against Bemisia sp. (Bemisia sp.; 21 d after 3rd treatm., 10.5 mg/plant): 84.6 % Abbott; Efficacy (% Abbott) against Bemisia sp. (Bemisia sp.; 28 d after 3rd treatm., 10.5 mg/plant): 85.7 % Abbott; Henderson-Tilton efficacy (%) against Coccus viridis (Coccus viridis; [8]): 45%; Henderson-Tilton efficacy (%) against Coccus viridis (Coccus viridis; 15 d after treatment, 12 mg active substance/1 potting compost): 55%; Henderson-Tilton efficacy (%) against Coccus viridis (Coccus viridis; [9]): 66%; Henderson-Tilton efficacy (%) against Coccus viridis (Coccus viridis; 35 d after treatment, 12 mg active substance/1 potting compost): 100%; Abbott efficacy (%) against TRIAVA ([5]; 14 d after 1st treatment, 9.8 mg active substance/plant, 70 WG): 28.4%; Abbott efficacy (%) against TRIAVA ([5]; 21 d after 1st treatment, 9.8 mg active substance/plant, 70 WG): 55.3%; Abbott efficacy (%) against TRIAVA ([5]; 28 d after 1st treatment, 9.8 mg active substance/plant, 70 WG): 89.1%; Abbott efficacy (%) against TRIAVA ([5]; 36 d after 1st treatment, 9.8 mg active substance/plant, 70 WG): 92.0%; Abbott efficacy (%) against TRIAVA ([5]; 43 d after 1st treatment, 9.8 mg active substance/plant, 70 WG): 89.8%"
